Data from patent US6525001B1, “Substituted pyrimidine and pyridine herbicides” (Mid-American Commercialization Corporation, priority 1997, dated 2003).

How the values were obtained:
Assay type in all cases: in vivo
[1] = system: common groundsel (Senecio vulgaris); experiment: Test E pre-/postemergence/post directed; set-up: key: 0 is no injury; 100 is complete control
Procedure, shortened: (§1)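 Greenhouse pot-grown plants; compound in non-phytotoxic solvent with surfactant applied preemergence to soil within one day of planting, postemergence at two to four leaf stage (three to twenty cm), or post-directed to plant base and soil. Visual injury rated 13 to 21 days after application, 0 (none) to 100 (complete control).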

kochia (Kochia scoparia) = experiment: Test D; conditions: PREEMERGENCE
[2] = system: jointed goatgrass (Aegilops cylindrica); experiment: Test D; conditions: PREEMERGENCE
[3] = system: lambsquarters (Chenopodium album); experiment: Test D; conditions: PREEMERGENCE
[4] = system: winter wheat (Triticum aestivum); experiment: Test D; conditions: PREEMERGENCE
[5] = system: Italian ryegrass (Lolium multiflorum); experiment: Test D; conditions: PREEMERGENCE
[6] = system: alexandergrass (Brachiaria plantaginea); experiment: Test E pre-/postemergence/post directed; set-up: key: 0 is no injury; 100 is complete control; conditions: PREEMERGENCE
Procedure, shortened: as §1

[7] = system: spring barley (Hordeum vulgare); experiment: Test D; conditions: PREEMERGENCE
[8] = system: redroot pigweed (Amaranthus retroflexus); experiment: Test D; conditions: PREEMERGENCE

With Cc1cnc(-c2ccc(C(F)(F)F)cc2)nc1Cc1cccc(OC(F)(F)F)c1 [Compound 15] the “Plant response rating, Com. groundsel” value ([1]; POSTEMERGENCE, Rate 125 g/ha) was 0.

With CCc1cnc(-n2ccc(C(F)(F)F)n2)nc1Cc1cccc(C(F)(F)F)c1 [Compound 46] the “Plant response rating, Kochia” value (kochia (Kochia scoparia); Rate 31 g/ha) was 60, the “Plant response rating, Kochia” value (kochia (Kochia scoparia); Rate 62 g/ha) was 60 and the “Plant response rating, Jointed goatgra” value ([2]; Rate 31 g/ha) was 50. For the same molecule, the “Plant response rating, Jointed goatgra” value ([2]; Rate 62 g/ha) was 60, the “Plant response rating, Lambsquarters” value ([3]; Rate 31 g/ha) was 65 and the “Plant response rating, Lambsquarters” value ([3]; Rate 62 g/ha) was 70. For the same molecule, the “Plant response rating, Wheat (winter)” value ([4]; Rate 31 g/ha) was 40, the “Plant response rating, Wheat (winter)” value ([4]; Rate 62 g/ha) was 2 and the “Plant response rating, I. Ryegrass” value ([5]; Rate 31 g/ha) was 60. For the same molecule, the “Plant response rating, I. Ryegrass” value ([5]; Rate 62 g/ha) was 60, the “Plant response rating, Alexandergrass” value ([6]; Rate 32 g/ha) was 0 and the “Plant response rating, Alexandergrass” value ([6]; Rate 64 g/ha) was 0. The “Plant response rating, Spring Barley” value ([7]; Rate 31 g/ha) was 30, the “Plant response rating, Spring Barley” value ([7]; Rate 62 g/ha) was 5 and the “Plant response rating, Redroot pigweed” value ([8]; Rate 31 g/ha) was 70. For the same molecule, the “Plant response rating, Redroot pigweed” value ([8]; Rate 62 g/ha) was 70.

Cc1cnc(-n2cnc(C(F)(F)F)n2)nc1C(=O)c1cccc(C(F)(F)F)c1 [Compound 67] was tested, and the “Plant response rating, Com. groundsel” value ([1]; PREEMERGENCE, Rate 32 g/ha) was 0.

For Cc1cnc(-n2ccc(C(F)(F)F)n2)nc1Cc1cccc(C(F)(F)F)c1 [Example 2, 5-methyl-4-[[3-(trifluoromethyl)phenyl]methyl]-2-[3-(trifluoromethyl)-1H-pyrazol-1-yl]pyrimidine], the “Plant response rating, Com. groundsel” value ([1]; POSTEMERGENCE, Rate 32 g/ha) was 0.
